The supplement of paper PMC8149375

Tests used:
Details in all cases: treatment: drug + dasatinib (fixed dose, not stated); 5 days
769-P [1] = assay: GI50 of drug in presence of dasatinib; higher = less potent
Procedure: (§1)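 Primary HTS combination arm: 8 RCC cell lines treated with 8 doses (up to 10 uM) of each library drug plus a fixed dose of dasatinib (dose not stated) for 5 days; viability read by CellTiter-Glo and normalised to DMSO. GI50 was fitted with XLfit, AUC is the area under the dose-response curve, and minimum viability is the lowest fraction of DMSO viability across doses.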

786-O [2] = assay: as above
Procedure: as §1

A498 [3] = assay: as above
Procedure: as §1

ACHN [4] = assay: as above
Procedure: as §1

CAKI-1 [5] = assay: as above
Procedure: as §1

SN12C [6] = assay: as above
Procedure: as §1

TK-10 [7] = assay: as above
Procedure: as §1

UO-31 [8] = assay: as above
Procedure: as §1

769-P [9] = assay: minimum viability across doses, drug + dasatinib, relative to DMSO (fraction); higher = less growth inhibition
Procedure: as §1

786-O [10] = assay: as above
Procedure: as §1

A498 [11] = assay: as above
Procedure: as §1

ACHN [12] = assay: as above
Procedure: as §1

CAKI-1 [13] = assay: as above
Procedure: as §1

SN12C [14] = assay: as above
Procedure: as §1

TK-10 [15] = assay: as above
Procedure: as §1

UO-31 [16] = assay: as above
Procedure: as §1

769-P [17] = assay: AUC of dose-response viability curve, drug + dasatinib, normalised to DMSO (arbitrary (AUC of normalised viability)); higher = less growth inhibition
Procedure: as §1

786-O [18] = assay: as above
Procedure: as §1

A498 [19] = assay: as above
Procedure: as §1

ACHN [20] = assay: as above
Procedure: as §1

CAKI-1 [21] = assay: as above
Procedure: as §1

SN12C [22] = assay: as above
Procedure: as §1

TK-10 [23] = assay: as above
Procedure: as §1

UO-31 [24] = assay: as above
Procedure: as §1

Cc1ccc(F)c(NC(=O)Nc2ccc(-c3cccc4[nH]nc(N)c34)cc2)c1 [Linifanib (ABT-869)] + Cc1nc(Nc2ncc(C(=O)Nc3c(C)cccc3Cl)s2)cc(N2CCN(CCO)CC2)n1 [dasatinib]
GI50 of drug (769-P [1]): 4 µM
GI50 of drug (786-O [2]): > 10 µM
GI50 of drug (A498 [3]): 9.11 µM
GI50 of drug (ACHN [4]): 3.71 µM
GI50 of drug (CAKI-1 [5]): 7.59 µM
GI50 of drug (SN12C [6]): 1.87 µM
GI50 of drug (TK-10 [7]): 3.45 µM
GI50 of drug (UO-31 [8]): > 10 µM
minimum viability across doses (769-P [9]): 0.27
minimum viability across doses (786-O [10]): 0.557
minimum viability across doses (A498 [11]): 0.279
minimum viability across doses (ACHN [12]): 0.244
minimum viability across doses (CAKI-1 [13]): 0.213
minimum viability across doses (SN12C [14]): 0.312
minimum viability across doses (TK-10 [15]): 0.231
minimum viability across doses (UO-31 [16]): 0.729
AUC of dose-response viability curve (769-P [17]): 2.33
AUC of dose-response viability curve (786-O [18]): 2.63
AUC of dose-response viability curve (A498 [19]): 3.28
AUC of dose-response viability curve (ACHN [20]): 2.4
AUC of dose-response viability curve (CAKI-1 [21]): 2.21
AUC of dose-response viability curve (SN12C [22]): 2.25
AUC of dose-response viability curve (TK-10 [23]): 2.58
AUC of dose-response viability curve (UO-31 [24]): 3.5

CC(C)(C)c1cc(C=C(C#N)C#N)cc(Br)c1O [AG-1024] + Cc1nc(Nc2ncc(C(=O)Nc3c(C)cccc3Cl)s2)cc(N2CCN(CCO)CC2)n1 [dasatinib]
GI50 of drug (769-P [1]): > 10 µM
GI50 of drug (786-O [2]): > 10 µM
GI50 of drug (A498 [3]): > 10 µM
GI50 of drug (ACHN [4]): > 10 µM
GI50 of drug (CAKI-1 [5]): > 10 µM
GI50 of drug (SN12C [6]): > 10 µM
GI50 of drug (TK-10 [7]): > 10 µM
GI50 of drug (UO-31 [8]): > 10 µM
minimum viability across doses (769-P [9]): 0.586
minimum viability across doses (786-O [10]): 0.601
minimum viability across doses (A498 [11]): 0.971
minimum viability across doses (ACHN [12]): 0.515
minimum viability across doses (CAKI-1 [13]): 0.57
minimum viability across doses (SN12C [14]): 0.687
minimum viability across doses (TK-10 [15]): 0.698
minimum viability across doses (UO-31 [16]): 1.06
AUC of dose-response viability curve (769-P [17]): 2.38
AUC of dose-response viability curve (786-O [18]): 2.42
AUC of dose-response viability curve (A498 [19]): 3.66
AUC of dose-response viability curve (ACHN [20]): 2.02
AUC of dose-response viability curve (CAKI-1 [21]): 2.24
AUC of dose-response viability curve (SN12C [22]): 2.55
AUC of dose-response viability curve (TK-10 [23]): 2.59
AUC of dose-response viability curve (UO-31 [24]): 4.02

Cc1ccc(C(=O)Nc2cccc(C(F)(F)F)c2)cc1Nc1nc(-c2cccnc2)nc2c1cnn2C [NVP-BHG712] + Cc1nc(Nc2ncc(C(=O)Nc3c(C)cccc3Cl)s2)cc(N2CCN(CCO)CC2)n1 [dasatinib]
GI50 of drug (769-P [1]): 1.64 µM
GI50 of drug (786-O [2]): 0.491 µM
GI50 of drug (A498 [3]): 4.42 µM
GI50 of drug (ACHN [4]): 0.511 µM
GI50 of drug (CAKI-1 [5]): 0.506 µM
GI50 of drug (SN12C [6]): 6.86 µM
GI50 of drug (TK-10 [7]): 1.07 µM
GI50 of drug (UO-31 [8]): 3.11 µM
minimum viability across doses (769-P [9]): 0.0398
minimum viability across doses (786-O [10]): 0.00229
minimum viability across doses (A498 [11]): 0.0233
minimum viability across doses (ACHN [12]): 0.126
minimum viability across doses (CAKI-1 [13]): 0.026
minimum viability across doses (SN12C [14]): 0.0536
minimum viability across doses (TK-10 [15]): 0.0343
minimum viability across doses (UO-31 [16]): 0.00794
AUC of dose-response viability curve (769-P [17]): 2.16
AUC of dose-response viability curve (786-O [18]): 1.66
AUC of dose-response viability curve (A498 [19]): 3.17
AUC of dose-response viability curve (ACHN [20]): 1.8
AUC of dose-response viability curve (CAKI-1 [21]): 1.87
AUC of dose-response viability curve (SN12C [22]): 2.37
AUC of dose-response viability curve (TK-10 [23]): 2.1
AUC of dose-response viability curve (UO-31 [24]): 3.61

COc1cc(OC)c(/C=C/S(=O)(=O)Cc2ccc(OC)c(NCC(=O)[O][Na])c2)c(OC)c1 + Cc1nc(Nc2ncc(C(=O)Nc3c(C)cccc3Cl)s2)cc(N2CCN(CCO)CC2)n1 [dasatinib]
GI50 of drug (769-P [1]): 0.0316 µM
GI50 of drug (786-O [2]): 0.0181 µM
GI50 of drug (A498 [3]): 0.0786 µM
GI50 of drug (ACHN [4]): 0.0279 µM
GI50 of drug (CAKI-1 [5]): 0.0157 µM
GI50 of drug (SN12C [6]): 0.163 µM
GI50 of drug (TK-10 [7]): 0.148 µM
GI50 of drug (UO-31 [8]): 0.0586 µM
minimum viability across doses (769-P [9]): 0.0648
minimum viability across doses (786-O [10]): 0.0033
minimum viability across doses (A498 [11]): 0.138
minimum viability across doses (ACHN [12]): 0.088
minimum viability across doses (CAKI-1 [13]): 0.0849
minimum viability across doses (SN12C [14]): 0.184
minimum viability across doses (TK-10 [15]): 0.292
minimum viability across doses (UO-31 [16]): 0.00998
AUC of dose-response viability curve (769-P [17]): 1.04
AUC of dose-response viability curve (786-O [18]): 0.766
AUC of dose-response viability curve (A498 [19]): 1.71
AUC of dose-response viability curve (ACHN [20]): 1.18
AUC of dose-response viability curve (CAKI-1 [21]): 0.99
AUC of dose-response viability curve (SN12C [22]): 1.67
AUC of dose-response viability curve (TK-10 [23]): 1.79
AUC of dose-response viability curve (UO-31 [24]): 1.28

CCc1cc2c(cc1N1CCC(N3CCOCC3)CC1)C(C)(C)c1[nH]c3cc(C#N)ccc3c1C2=O + Cc1nc(Nc2ncc(C(=O)Nc3c(C)cccc3Cl)s2)cc(N2CCN(CCO)CC2)n1 [dasatinib]
GI50 of drug (769-P [1]): > 10 µM
GI50 of drug (786-O [2]): > 10 µM
GI50 of drug (A498 [3]): > 10 µM
GI50 of drug (ACHN [4]): 0.659 µM
GI50 of drug (CAKI-1 [5]): 2.34 µM
GI50 of drug (SN12C [6]): > 10 µM
GI50 of drug (TK-10 [7]): 5.11 µM
GI50 of drug (UO-31 [8]): 7.8 µM
minimum viability across doses (769-P [9]): 0.535
minimum viability across doses (786-O [10]): 0.614
minimum viability across doses (A498 [11]): 1.12
minimum viability across doses (ACHN [12]): 0.247
minimum viability across doses (CAKI-1 [13]): 0.311
minimum viability across doses (SN12C [14]): 0.675
minimum viability across doses (TK-10 [15]): 0.377
minimum viability across doses (UO-31 [16]): 0.0552
AUC of dose-response viability curve (769-P [17]): 2.47
AUC of dose-response viability curve (786-O [18]): 2.35
AUC of dose-response viability curve (A498 [19]): 4.59
AUC of dose-response viability curve (ACHN [20]): 1.82
AUC of dose-response viability curve (CAKI-1 [21]): 2.04
AUC of dose-response viability curve (SN12C [22]): 2.45
AUC of dose-response viability curve (TK-10 [23]): 2.35
AUC of dose-response viability curve (UO-31 [24]): 5.15

Nc1ncnc2c1c(-c1cccc(OCc3ccccc3)c1)cn2[C@H]1C[C@H](CN2CCCC2)C1 [NVP-ADW742] + Cc1nc(Nc2ncc(C(=O)Nc3c(C)cccc3Cl)s2)cc(N2CCN(CCO)CC2)n1 [dasatinib]
GI50 of drug (769-P [1]): 5.14 µM
GI50 of drug (786-O [2]): 3.28 µM
GI50 of drug (A498 [3]): 8.96 µM
GI50 of drug (ACHN [4]): 0.129 µM
GI50 of drug (CAKI-1 [5]): 1.29 µM
GI50 of drug (SN12C [6]): > 10 µM
GI50 of drug (TK-10 [7]): 3.39 µM
GI50 of drug (UO-31 [8]): 2.49 µM
minimum viability across doses (769-P [9]): 0.278
minimum viability across doses (786-O [10]): 0.172
minimum viability across doses (A498 [11]): 0.296
minimum viability across doses (ACHN [12]): 0.147
minimum viability across doses (CAKI-1 [13]): 0.0883
minimum viability across doses (SN12C [14]): 0.48
minimum viability across doses (TK-10 [15]): 0.124
minimum viability across doses (UO-31 [16]): 0.0171
AUC of dose-response viability curve (769-P [17]): 2.45
AUC of dose-response viability curve (786-O [18]): 2.33
AUC of dose-response viability curve (A498 [19]): 3.18
AUC of dose-response viability curve (ACHN [20]): 1.77
AUC of dose-response viability curve (CAKI-1 [21]): 2
AUC of dose-response viability curve (SN12C [22]): 2.44
AUC of dose-response viability curve (TK-10 [23]): 2.44
AUC of dose-response viability curve (UO-31 [24]): 2.57

COc1cc2c(N3CCN(C(=O)Nc4ccc(OC(C)C)cc4)CC3)ncnc2cc1OCCCN1CCCCC1 [Tandutinib (MLN518)] + Cc1nc(Nc2ncc(C(=O)Nc3c(C)cccc3Cl)s2)cc(N2CCN(CCO)CC2)n1 [dasatinib]
GI50 of drug (769-P [1]): > 10 µM
GI50 of drug (786-O [2]): > 10 µM
GI50 of drug (A498 [3]): > 10 µM
GI50 of drug (ACHN [4]): 3.27 µM
GI50 of drug (CAKI-1 [5]): 4.78 µM
GI50 of drug (SN12C [6]): > 10 µM
GI50 of drug (TK-10 [7]): > 10 µM
GI50 of drug (UO-31 [8]): > 10 µM
minimum viability across doses (769-P [9]): 0.555
minimum viability across doses (786-O [10]): 0.523
minimum viability across doses (A498 [11]): 0.705
minimum viability across doses (ACHN [12]): 0.387
minimum viability across doses (CAKI-1 [13]): 0.384
minimum viability across doses (SN12C [14]): 0.644
minimum viability across doses (TK-10 [15]): 0.647
minimum viability across doses (UO-31 [16]): 0.527
AUC of dose-response viability curve (769-P [17]): 2.45
AUC of dose-response viability curve (786-O [18]): 2.67
AUC of dose-response viability curve (A498 [19]): 2.96
AUC of dose-response viability curve (ACHN [20]): 2.15
AUC of dose-response viability curve (CAKI-1 [21]): 2.35
AUC of dose-response viability curve (SN12C [22]): 2.45
AUC of dose-response viability curve (TK-10 [23]): 2.83
AUC of dose-response viability curve (UO-31 [24]): 3.35
